Laboratory results reported in patent publication US20240415752A1, “A personal care composition comprising vitamin K2 and hydroxystearic acid” (Conopco, Inc., d/b/a UNILEVER, priority 2021, published 2024).

System: Normal human epidermal melanocytes (NHEM)
Assay: Melanin inhibition rate in UVB-irradiated melanocytes
Format: cell-based
Conditions: for Melanin inhibition rate (% inhibition against UV): NHEM, UVB 14 mJ/cm^2 every 24 h, 72 hours treatment, active concentration (wt %) as in table, melanin normalized to relative cell viability; for Boost of efficacy of Vitamin K2 (melanin inhibition), in words: combination with Encap MK7 (0.0024%) in NHEM
Procedure: Effect of actives like 12HSA, 4-HR (4-hexyl resorcinol) and Encap MK7 (encapsulated Vitamin K2 of the MK-7 type) were tested individually and in combination. The protocol for the invitro assay is summarized below:
Normal human epidermal melanocytes (NHEM) (Biocell, Xi'an, China) were grown in melanocyte growth medium (MGM) with human melanocyte growth supplement (both from Promocell, Germany). NHEM cells were seeded at a density of 7×10^4 cells in 2 mL MGM/well in 6-well plates and incubated for 24 hours in an incubator at 37° C. with 5% CO2. When reaching 50% confluency, cells were irradiated with UVB at 14 mJ/cm^2 and after UV irradiation, media was replaced with fresh media containing test materials. Every 24 hours in the following 72 hours, the cells were irradiated with UVB again, and the treatment were refreshed.
At the end of the 72 hours incubation period, cell viability was determined using the Alamar Blue method. Briefly, cells were washed twice with phosphate buffered saline (PBS) solution. Freshly prepared 10% Alamar Blue working solution was added into each well including the blank control wells without cells. Plates were incubated for 1 hour at 37° C. in the CO2 incubator. The Alamar Blue solution was then transferred to a 96-well plate to check fluorescence intensity at Ex/Em 530 nm/590 nm using a fluorescent plate reader.
After cell viability evaluation, cells were further washed with PBS for twice and the cells were detached with 0.25% trypsin and collected with centrifugation. The cell pellet was added with a mixed solution (H2O:EtOH:Et2O=2:5:5 v/v) and the mixture was vortexed and left stand still for 30 min. Then the mixture was centrifuged at 1000 r/min for 10 min. The lower fraction was collected and further extracted with a solution containing 10% (v/v) DMSO and 1 M NaOH and incubated at 80° C. in a water bath for 40 minutes. Melanin standard solution was prepared in similarly by adding the same DMSO/NaOH mixed solution to the commercially sourced melanin and incubated at 80° C. for 40 minutes. The extracted melanin and the serially diluted melanin standard solution was then transferred to a 96-well plate and the absorbance at 405 nm was detected using a plate reader. The melanin content was calculated from the melanin standard curve. The melanin concentrations (μg/mL) were then normalized to the relative cell viability. The melanin inhibition rates were calculated using the following equation.

Row | Structure (SMILES) | Melanin inhibition rate (% inhibition against UV) [%] | Boost of efficacy of Vitamin K2 (melanin inhibition), in words
1 | CCCCCCc1ccc(O)cc1O [C, 4-hexyl resorcinol] | 38.5 | does not do so
2 | CCCCCCC(O)CCCCCCCCCCC(=O)O (stereo not shown) [A, 12-hydroxystearic acid] | 25.3 | able to boost efficacy of Vitamin K2
